Assay results from patent publication US8138168B1 (Takeda Pharmaceutical Company Limited, priority 2007, dated 2012).

Target: T1, Recombinant human renin (Homo sapiens, UniProt P00797)
T1 construct: isolate the active form (residues 67-406); made in house; host or cells: FreeStyle 293-F cells (transient expression of pcDNA3.1(+)/hREN)
T1 sequence (P00797 67-406): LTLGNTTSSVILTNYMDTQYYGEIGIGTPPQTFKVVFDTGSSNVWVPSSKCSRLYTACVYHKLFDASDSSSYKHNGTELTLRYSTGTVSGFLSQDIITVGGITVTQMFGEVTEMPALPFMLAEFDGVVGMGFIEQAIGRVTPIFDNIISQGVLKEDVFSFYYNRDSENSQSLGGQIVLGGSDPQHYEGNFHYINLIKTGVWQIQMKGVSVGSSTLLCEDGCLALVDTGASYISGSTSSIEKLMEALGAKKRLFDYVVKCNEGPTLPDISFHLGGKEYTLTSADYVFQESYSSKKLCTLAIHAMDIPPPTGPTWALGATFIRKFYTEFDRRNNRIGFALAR
Test: In vitro enzymatic activity assay of renin inhibitors (fluorogenic peptide substrate)
Format: biochemical
Conditions: read-out: IC50 of Exemplified Compounds Against Renin
Summary of the method: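 Enzyme: recombinant human renin, 3 nM final, 10 min compound pre-incubation at 37 °C; buffer 50 mM Hepes pH 7.4 with 0.1 mg/mL BSA or extra 2% BSA; 5% DMSO.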

IC50 [nM]	Compound
< 100	COCCCn1c([C@@H]2CCCN(C(=O)C[C@H](N)Cc3ccc(-c4ccc(N)nc4)cc3)C2)nc2ccccc21 [Compound 136, (R)-3-amino-4-(4-(6-aminopyridin-3-yl)phenyl)-1-((R)-3-(1-(3-methoxypropyl)-1H-benzo[d]imidazol-2-yl)piperidin-1-yl)butan-1-one]
100 to 1000	COCCCn1c([C@@H]2CCCN(C(=O)C[C@H](N)Cc3cc(F)c(F)cc3F)C2)nc2ccccc21 [Compound 86, (R)-3-amino-1((R)-3-(1-(3-methoxypropyl)-1H-benzo[d]imidazol-2-yl)piperidin-1-yl)-4-(2,4,5-trifluorophenyl)butan-1-one]
> 1000	COCCCn1c([C@@H]2CCCN(C(=O)C[C@H](N)Cc3ccc(N4CCC(O)CC4)cc3)C2)nc2ccccc21 [Compound 234, (R)-3-amino-4-(4-(4-hydroxypiperidin-1-yl)phenyl)-1-((R)-3-(1-(3-methoxypropyl)-1H-benzo[d]imidazol-2-yl)piperidin-1-yl)butan-1-one]
> 1000	Cc1cc(C)cc(NC(=O)N2CCCC(c3nc4ccccc4[nH]3)C2)c1 (stereo not drawn) [Compound 6, 3-(1H-benzo[d]imidazol-2-yl)-N-(3,5-dimethylphenyl)piperidine-1-carboxamide]
> 1000	N[C@@H](CC(=O)N1CCCC(c2nc3ccccc3[nH]2)C1)Cc1ccc(Cl)cc1 (stereo partly drawn) [Compound 23, (3R)-1-(3-(1H-Benzo[d]imidazol-2-yl)piperidin-1-yl)-3-amino-4-(4-chlorophenyl)butan-1-one]
< 100	COCCCn1c([C@@H]2CCCN(C(=O)C[C@H](N)Cc3ccc(-c4ccccc4)cc3)C2)nc2c(Cl)cccc21 [Compound 118, (R)-3-amino-4-(biphenyl-4-yl)-1-((R)-3-(4-chloro-1-(3-methoxypropyl)-1H-benzo[d]imidazol-2-yl)piperidin-1-yl)butan-1-one]
< 100	COCCCn1c([C@@H]2CCCN(C(=O)C[C@H](N)Cc3ccc(-c4ccnc(O)c4)cc3)C2)nc2c(F)cccc21 [Compound 444, (R)-3-amino-1-((R)-3-(4-fluoro-1-(3-methoxypropyl)-1H-benzo[d]imidazol-2-yl)piperidin-1-yl)-4-(4-(2-hydroxypyridin-4-yl)phenyl)butan-1-one]
< 100	COCCCn1c([C@@H]2CCCN(C(=O)C[C@H](N)Cc3ccc(-c4ccoc4)cc3)C2)nc2ccccc21 [Compound 145, (R)-3-amino-4-(4-(furan-3-yl)phenyl)-1-((R)-3-(1-(3-methoxypropyl)-1H-benzo[d]imidazol-2-yl)piperidin-1-yl)butan-1-one]
< 100	CCOCCNC(=O)c1ccc(-c2ccc(C[C@@H](N)CC(=O)N3CCC[C@@H](c4nc5ccccc5n4CCCOC)C3)cc2)cc1 [Compound 178, 4′-((R)-2-amino-4-((R)-3-(1-(3-methoxypropyl)-1H-benzo[d]imidazol-2-yl)piperidin-1-yl)-4-oxobutyl)-N-(2-ethoxyethyl)biphenyl-4-carboxamide]
100 to 1000	COCCCn1c([C@@H]2CCCN(C(=O)[C@H](O)[C@H](N)c3ccccc3)C2)nc2ccccc21 [Compound 92, (2R,3R)-3-amino-2-hydroxy-1-((R)-3-(1-(3-methoxypropyl)-1H-benzo[d]imidazol-2-yl)piperidin-1-yl)-3-phenylpropan-1-one]
100 to 1000	COCCCn1c([C@@H]2CCCN(C(=O)C[C@H](N)CNC(=O)Nc3ccc(OC)cc3C)C2)nc2ccccc21 [Compound 292, 1-((S)-2-amino-4-((R)-3-(1-(3-methoxypropyl)-1H-benzo[d]imidazol-2-yl)piperidin-1-yl)-4-oxobutyl)-3-(4-methoxy-2-methylphenyl)urea]
< 100	COCCCn1c([C@@H]2CCCN(C(=O)C[C@H](N)Cc3ccc(-c4ccc5c(c4)OCC(=O)N5)cc3)C2)nc2c(C)cccc21 [Compound 497, 7-(4-((R)-2-amino-4-((R)-3-(1-(3-rnethoxypropyl)-4-methyl-1H-benzo[d]imidazol-2-yl)piperidin-1-yl)-4-oxobutyl)phenyl)-2H-benzo[b][1,4]oxazin-3(4H)-one]
< 100	COCCCn1c([C@@H]2CCCN(C(=O)C[C@H](N)Cc3ccc(-c4ccc(N(C)C)cc4)cc3)C2)nc2ccccc21 [Compound 161, (R)-3-amino-4-(4′-(dimethylamino)biphenyl-4-yl)-1-((R)-3-(1-(3-methoxypropyl)-1H-benzo[d]imidazol-2-yl)piperidin-1-yl)butan-1-one]
< 100	COCCCn1c([C@@H]2CCCN(C(=O)C[C@H](N)CNC(=O)Nc3ccccc3OC)C2)nc2ccccc21 [Compound 250, 1-((S)-2-amino-4-((R)-3-(1-(3-methoxypropyl)-1H-benzo[d]imidazol-2-yl)piperidin-1-yl)-4-oxobutyl)-3-(2-methoxyphenyl)urea]
100 to 1000	COCCCn1c([C@@H]2CCCN(C(=O)C[C@H](N)Cc3ccc4ccccc4c3)C2)nc2ccc(OC)nc21 [Compound 503, (3R)-3-amino-1-(3-(5-methoxy-3-(3-methoxypropyl)-3H-imidazo[4,5-b]pyridin-2-yl)piperidin-1-yl)-4-(naphthalen-2-yl)butan-1-one]
> 1000	COCCCn1c([C@@H]2CCCN(C(=O)C[C@@H](N)Cc3ccc(Cl)cc3)C2)nc2ccccc21 [Compound 69, (S)-3-amino-4-(4-chlorophenyl)-1-((R)-3-(1-(3-methoxypropyl)-1H-benzo[d]imidazol-2-yl)piperidin-1-yl)butan-1-one]
> 1000	COCCCn1c([C@@H]2CCCN(C(=O)[C@@H]3CN(C(=O)Nc4ccccc4OC)C[C@H]3N)C2)nc2ccccc21 [Compound 400, (3S,4R)-3-amino-N-(2-methoxyphenyl)-4-((R)-3-(1-(3-methoxypropyl)-1H-benzo[d]imidazol-2-yl)piperidine-1-carbonyl)pyrrolidine-1-carboxamide]
> 1000	NC(=O)CCn1c([C@@H]2CCCN(C(=O)C[C@H](N)Cc3ccc(-c4ccc(Cl)cc4)cc3)C2)nc2ccccc21 [Compound 489, 3-(2-((R)-1-((R)-3-amino-4-(4′-chlorobiphenyl-4-yl)butanoyl)piperidin-3-yl)-1H-benzo[d]imidazol-1-yl)propanamide]
100 to 1000	CC(=O)NCCn1c([C@@H]2CCCN(C(=O)C[C@H](N)Cc3ccc(-c4ccc(N)nc4)cc3)C2)nc2c(C)cccc21 [Compound 471, N-(2-(2-((R)-1-((R)-3-amino-4-(4-(6-aminopyridin-3-yl)phenyl)butanoyl)piperidin-3-yl)-4-methyl-1H-benzo[d]imidazol-1-yl)ethyl)acetamide]
100 to 1000	COCCCn1c([C@@H]2CCCN(C(=O)C[C@H](N)Cc3ccc4ccccc4c3)C2)nc2c1CCCC2 [Compound 241, (R)-3-amino-1((R)-3-(1-(3-methoxypropyl)-4,5,6,7-tetrahydro-1H-benzo[d]imidazol-2-yl)piperidin-1-yl)-4-(naphthalen-2-yl)butan-1-one]
100 to 1000	COCCCn1c([C@@H]2CCCN(C(=O)C[C@H](N)CNC(=O)Nc3ccccc3OC(F)F)C2)nc2ccccc21 [Compound 274, 1-((S)-2-amino-4-((R)-3-(1-(3-methoxypropyl)-1H-benzo[d]imidazol-2-yl)piperidin-1-yl)-4-oxobutyl)-3-(2-(difluoromethoxy)phenyl)urea]
